Reference: BindingDB's records for doi:10.7270/Q2XS5SVJ (Nmmlsc, 2010)

Each compound was assayed against Guanine nucleotide-binding protein G(o) subunit alpha (Homo sapiens, UniProt P09471) (assay: modulators of RGS16 binding to Galphao – biochemical, multiplexed bead assay, additional SAR round, SAR follow-up (AID 2828)).
Guanine nucleotide-binding protein G(o) subunit alpha, sequence (P09471 whole entry): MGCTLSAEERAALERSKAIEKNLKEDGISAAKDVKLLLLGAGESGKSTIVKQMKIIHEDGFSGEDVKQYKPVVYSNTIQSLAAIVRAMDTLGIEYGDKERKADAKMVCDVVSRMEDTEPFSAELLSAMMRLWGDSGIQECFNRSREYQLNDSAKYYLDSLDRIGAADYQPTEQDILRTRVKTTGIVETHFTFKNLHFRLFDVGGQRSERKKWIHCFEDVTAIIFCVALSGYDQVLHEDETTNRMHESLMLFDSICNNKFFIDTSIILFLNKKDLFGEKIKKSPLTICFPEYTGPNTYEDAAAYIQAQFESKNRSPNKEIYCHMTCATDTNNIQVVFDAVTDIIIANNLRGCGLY

EC50, > 30 µM:
NC(=O)c1sc2cc([N+](=O)[O-])ccc2c1Cl [KSC-1-100]
O=C(NCCCn1ccnc1)c1sc2cc([N+](=O)[O-])ccc2c1Cl [3-chloro-N-[3-(1-imidazolyl)propyl]-6-nitro-1-benzothiophene-2-carboxamide]
O=C(c1sc2cc([N+](=O)[O-])ccc2c1Cl)N1CCNCC1
O=C(NCCCN1CCOCC1)c1sc2cc([N+](=O)[O-])ccc2c1Cl [3-chloranyl-N-(3-morpholin-4-ylpropyl)-6-nitro-1-benzothiophene-2-carboxamide]
Cc1ccc2c(Cl)c(C(=O)NCCCN3CCOCC3)sc2c1 [KUC103874N]
